In patent US9066516B2, “Uses of thaxtomin and thaxtomin compositions as herbicides” (priority 2008, dated 2015):
Where two headings read alike, the source gives them in different places.

Legend:
plantain = experiment: Greenhouse synergy test MBI-005 + turf herbicides (Example 11); assay type: in vivo; conditions: 14 days
Description: (§1) The common turf weeds dandelion and plantain were used in testing for synergy between MBI-005 and 2, 4- or dicamba, two common turf herbicides.
(§2) There were 3 replicates per treatment which were sprayed with approximately ⅔ ml per replicate. The treatments were completely randomized and kept in a greenhouse at 25° C. The efficacy was rated at 7 and 14 days post treatment.

dandelion = experiment: as above; assay type: in vivo; conditions: 14 days
Description: as §1, §2

crabgrass [1] = experiment: Post-emergent MBI-005 + Atrazine on crabgrass (Example 17); assay type: in vivo; conditions: 35% Atrazine Label Rate
Description: Ten seedlings in 2.5 cm square pots containing plant growth mix were sprayed with two suboptimal rates of MBI-005, and 35% of the atrazine label rate (0.3 gallons/A), or a combination thereof, at a volume of 40 gal/A using a cabinet track sprayer. Negative controls were sprayed with water. Pots were randomly placed in a growth room at 25° C. and 50% RH, and watered as necessary. Treatments were replicated five times and evaluated at 7 and 14 days for visual % damage, with 0% indicating no damage and 100% indicating plant death.
(§3) Synergy was calculated as the ratio of observed (E) to expected (E/Ee) percent control using Colby's formula.

barnyard grass [2] = experiment: Greenhouse spray test bialaphos + MBI-005 (Example 10); assay type: in vivo
Description: The MBI-005 and bialaphos were prepared at various concentrations either as single ingredients or in combination with bialaphos. The treatments were applied at approximately ⅔ ml per replicate with a hand-help spray nozzle to barnyard grass or sedge. There were 3 replicates per treatment which were randomized after spray and were kept in a greenhouse at 25° C. for evaluation of phytotoxicity (% control).

barnyard grass [3] = experiment: Greenhouse synergy test MBI-005 + commercial herbicides (Example 11); assay type: in vivo; conditions: 14 days
Description: (§4) The test species barnyard grass, ragweed, sedge, and broad-leaf mustard were used for the valuation of synergy between MBI-005 and the rice herbicides clomazone, penoxsulam, cyhalofop, fenoxaprop-p-ethyl, bispyribac-sodium, thiobencarb, and propanil.
as §2

broad-leaf mustard = experiment: as above; assay type: in vivo; conditions: 14 days
Description: as §4, §2

[4] = system: small flower umbrella sedge; experiment: Post-emergent MBI-005 + rice herbicides on smallflower umbrella sedge (Example 19); assay type: in vivo; conditions: 14 days
Description: (§5) Twenty seedlings in 2.5 cm square pots containing plant growth mix were sprayed to full coverage using a hand sprayer. Negative controls were sprayed with water. Pots were randomly placed in a growth room at 25° C. and 50% RH, and watered as necessary. Treatments were replicated three times and evaluated at 7 and 14 days for visual % damage, with 0% indicating no damage and 100% indicating plant death.
as §3

ragweed = experiment: Greenhouse synergy test MBI-005 + commercial herbicides (Example 11); assay type: in vivo; conditions: 14 days
Description: as §4
(§6) […] other herbicides commonly used for field crops, glyphosate, glufosinate, synthetic version of bialaphos, and mesotrione were also tested for synergy with MBI-005 on crabgrass and ragweed.
as §2

barnyard grass [5] = experiment: Post-emergent MBI-005 + rice herbicides on barnyard grass (Example 18); assay type: in vivo; conditions: 14 days
Description: as §5, with “Ten” for “Twenty”
Synergistic effect were noted between MBI-005 and all three rice herbicides, 14 days after treatment. Synergy was calculated as the ratio of observed (E) to expected (E/Ee) percent control using Colby's formula.

[6] = system: small-flower umbrella sedge; experiment: Field study, 1-sq foot plots (Example 5); assay type: in vivo; conditions: 14 days after treatment
Description: (§7) The combined effect of thaxtomin A and two commercial herbicides (Bipyribac-sodium formulated as Regiment and Lemongrass oil formulated as GreenMatch EX) on small-flower umbrella sedge and watergrass is tested in a field study using small (1-sq foot) plots. All single product treatments and tank mix combinations were sprayed at 57 gal per acre. Means in each column marked with the same letter in Table 2 are not statistically different from each other at p<0.05

watergrass = experiment: Field study, 1-sq foot plots (Example 5); assay type: in vivo; conditions: 14 days after treatment
Description: as §7

crabgrass [7] = experiment: Crabgrass seed germination, MBI-005 + m-Tyrosine (Example 15); assay type: in vivo; conditions: 7 DAT; for AVG No. germinated: forty-five seeds
Description: Forty-five seeds were placed on a ring of blotter paper inside a 3 cm petri dish, covered with 10 cm^3 of inert baked clay particle media and supplied with 7 ml of 0.035 mg/ml MBI-005, a m-Tyrosine concentration, or a combination of MBI-005 and m-Tyrosine (Table 14). Water was used as a negative control. Petri dishes were randomly placed in a growth room at 25° C. and 50% RH. Treatments were replicated three times and germinated seeds were counted 7 days after application; water was added as necessary to maintain moisture levels inside each petri dish.
Synergy was calculated as the ratio of observed (E) to expected (E/Ee) reduction in germination using Colby's formula.

redstem; Ammania spp. = experiment: Greenhouse study thaxtomin A / sarmentine (Example 9); assay type: in vivo; conditions: 25 days after treatment
Description: (§8) A strain of S. acidiscabies was grown in oat bran broth for 5 days (25° C., 200 rpm). The whole cell broth was extracted using XAD resin, and the dried crude extract was resuspended in 4% ethanol and 0.2% non-ionic surfactant at a concentration of 10 mg/mL. The diluted extracts containing 0.2 and 0.4 mg thaxtomin A per mL were tested on three weed species (redstem; Ammania spp., smallflower umbrella sedge; Cyperus difformis and sprangletop: Leptochloa uninervia). Other treatments included sarmentine at 2.5 and 5.0 mg/mL, and a combination treatment containing 0.2 mg thaxtomin A and 2.5 mg sarmentine per mL. Each treatment was applied in three replicates. Treated plants were kept in a greenhouse under 12 h light/12 h dark conditions.

[8] = system: smallflower umbrella sedge; Cyperus difformis; experiment: as above; assay type: in vivo; conditions: 25 days after treatment
Description: as §8

[9] = system: sprangletop: Leptochloa uninervia; experiment: as above; assay type: in vivo; conditions: 25 days after treatment
Description: as §8

sedge = experiment: Greenhouse synergy test MBI-005 + commercial herbicides (Example 11); assay type: in vivo; conditions: 14 days
Description: as §4, §2

crabgrass [10] = experiment: Greenhouse synergy test MBI-005 + field crop herbicides (Example 11); assay type: in vivo; conditions: 14 days
Description: as §6, §2

barnyard grass [11] = experiment: Post-emergent MBI-005 + Propanil on barnyard grass (Example 20); assay type: in vivo; conditions: Echinochloa crus-galli, post-emergence, 336 h; 25% Propanil (of label rate); 14 days; read-out: Observed Average % Efficacy (E)
Description: Negative controls were sprayed with water. Pots were randomly placed in a growth room at 25° C. and 50% RH, and watered as necessary. Treatments were replicated three times and evaluated at 7 and 14 days for visual % damage, with 0% indicating no damage and 100% indicating plant death.
as §3

[12] = in vivo; cited from earlier work
[13] = system: Smallflower umbrella sedge; experiment: Post-emergent MBI-005 + Thiobencarb on Smallflower umbrella sedge (Example 21); assay type: in vivo; conditions: post-emergence, 336 h, 14 days, read-out: Observed Average % Efficacy (E)
Description: […] Negative controls were sprayed with water. Pots were randomly placed in a growth room at 25° C. and 50% RH, and watered as necessary. Treatments were replicated three times and evaluated at 7 and 14 days for visual % damage, with 0% indicating no damage and 100% indicating plant death.
as §3

[14] = Bispyribac-sodium 13.3% v/v of label rate

O=C(O)COc1ccc(Cl)cc1Cl [2,4-D, reference compound]
% Control Product (plantain; 2, 4-D 2.340 mg/mL): 50.0% | % Control Product (dandelion; 2, 4-D 0.176 mg/mL): 25.0%

CCNc1nc(Cl)nc(NC(C)C)n1 [Atrazine, reference compound]
AVG E (visual % damage) (crabgrass [1]; 7DAT): 11.9% | AVG/ E (visual % damage) (crabgrass [1]; 14DAT): 8.8%

C[C@H](NC(=O)[C@H](C)NC(=O)[C@@H](N)CCP(C)(=O)O)C(=O)O [Bialaphos]
% Control (14 days) (barnyard grass [2]; Table 6, Bialaphos 0.089 mg/mL): 0.0 a % | % Control (14 days) (barnyard grass [2]; Table 6, Bialaphos 0.178 mg/mL): 0.0 a % | % Control (14 days) (barnyard grass [2]; Table 6, Bialaphos 0.356 mg/mL): 0.0 a % | % Control (14 days) (barnyard grass [2]; Table 6, Bialaphos 0.534 mg/mL): 0.0 a % | % Control (14 days) (barnyard grass [2]; Table 6, Bialaphos 0.712 mg/mL): 0.0 a % | % Control (14 days) (barnyard grass [2]; Table 6, Bialaphos 0.890 mg/mL): 1.3 ab % | % Control (14 days) (barnyard grass [2]; Table 6, Bialaphos 1.068 mg/mL): 5.0 abc % | % Control (14 days) (barnyard grass [2]; Table 7, Bialaphos 0.18 mg/mL): 6.7 bc % | % Control (14 days) (barnyard grass [2]; Table 7, Bialaphos 0.53 mg/mL): 3.3 ab % | % Control (14 days) (barnyard grass [2]; Table 7, Bialaphos 1.07 mg/mL): 10.0 c % | % Control (14 days) (barnyard grass [2]; Table 7, Bialaphos 1.07 mg/mL, listed as bialaphos): 10% | % Control (7 days) (barnyard grass [2]; Table 8, Bialaphos 1.1 mg/mL): 5.0 ab % | % Control (14 days) (barnyard grass [2]; Table 8, Bialaphos 1.1 mg/mL): 3.7 a % | % Control (7 days) (barnyard grass [2]; Table 8, Bialaphos 1.4 mg/mL): 10.8 b % | % Control (14 days) (barnyard grass [2]; Table 8, Bialaphos 1.4 mg/mL): 23.3 b % | % Control (7 days) (barnyard grass [2]; Table 8, Bialaphos 1.8 mg/mL): 62.5 c % | % Control (14 days) (barnyard grass [2]; Table 8, Bialaphos 1.8 mg/mL): 66.7 c %

COc1cc(OC)nc(Oc2cccc(Oc3nc(OC)cc(OC)n3)c2C(=O)O)n1 [Bispyribac-sodium]
% Control Product (barnyard grass [3]; bispyribac-sodium 0.032 mg/mL): 0.0% | % Control Product (broad-leaf mustard; bispyribac-sodium 0.0216 mg/mL): 53.3% | % control AI [4, 14]: 37.5% | % Control Product (ragweed; bispyribac-sodium 0.0216 mg/mL): 5.0% | % control chemical AI (barnyard grass [5]; [14]): 6.7% | Sedge control (%) ([6]; Bispyribac-sodium 12 g/acre): 87.5a % | Sedge control (%) ([6]; Bispyribac-sodium ½ (6 g/acre)): 47.5c % | Watergrass control (%) (watergrass; Bispyribac-sodium 12 g/acre): 32.5a % | Watergrass control (%) (watergrass; Bispyribac-sodium ½ (6 g/acre)): 15c %

N[C@@H](Cc1cccc(O)c1)C(=O)O [M-tyrosine, m-Tyrosine]
E (% controlled compared to UTC) (crabgrass [7]; .22 mg/mL M-tyrosine): 8.3% | AVG No. germinated (crabgrass [7]; .22 mg/mL M-tyrosine): 40.7 | E (% controlled compared to UTC) (crabgrass [7]; .44 mg/mL M-tyrosine): 0.8% | AVG No. germinated (crabgrass [7]; .44 mg/mL M-tyrosine): 44.0

CCCCC/C=C/C=C/C(=O)N1CCCC1 [Sarmentine]
Control of redstem (%) (redstem; Ammania spp.; Sarmentine 2.5 mg/mL): 0a % | Control of redstem (%) (redstem; Ammania spp.; Sarmentine 5.0 mg/mL): 2.5ab % | Control of sedge (%) ([8]; Sarmentine 2.5 mg/mL): 8.3a % | Control of sedge (%) ([8]; Sarmentine 5.0 mg/mL): 6.7a % | Control of sprangletop (%) ([9]; Sarmentine 2.5 mg/mL): 80.0c % | Control of sprangletop (%) ([9]; Sarmentine 5.0 mg/mL): 92.3d %

CC1(C)CON(Cc2ccccc2Cl)C1=O [clomazone]
% Control Product (barnyard grass [3]; clomazone 0.513 mg/mL): 37.5% | % Control Product (sedge; clomazone 0.501 mg/mL): 0.0% | % Control Product (broad-leaf mustard; clomazone 0.513 mg/mL): 25.0% | % control AI ([4]; Clomazone 13% v/v of label rate): 0.0% | % control chemical AI (barnyard grass [5]; Clomazone 13.3 % v/v of label rate): 37.50%

COc1c(Cl)ccc(Cl)c1C(=O)O [dicamba, reference compound]
% Control Product (plantain; dicamba 6.025 mg/mL): 50.0% | % Control Product (dandelion; dicamba 0.121 mg/mL): 45.8%

CCOC(=O)[C@@H](C)Oc1ccc(Oc2nc3ccc(Cl)cc3o2)cc1 [fenoxaprop-p-ethyl]
% Control Product (barnyard grass [3]; fenoxaprop-p-ethyl 0.006 mg/mL): 91.7% | % Control Product (sedge; fenoxaprop-p-ethyl 0.116 mg/mL): 0.0% | % Control Product (broad-leaf mustard; fenoxaprop-p-ethyl 0.006 mg/mL): 0.0%

CP(=O)(O)CCC(N)C(=O)O (centres unmarked) [glufosinate]
% Control Product (crabgrass [10]; glufosinate 0.151 mg/mL): 83.3% | % Control Product (ragweed; glufosinate 0.194 mg/mL): 22.5%

O=C(O)CNCP(=O)(O)O [glyphosate]
% Control Product (crabgrass [10]; glyphosate 0.754 mg/mL): 45.8% | % Control Product (ragweed; glyphosate 2.198 mg/mL): 15.0%

CS(=O)(=O)c1ccc(C(=O)C2C(=O)CCCC2=O)c([N+](=O)[O-])c1 [mesotrione]
% Control Product (crabgrass [10]; mesotrione 0.24 mg/mL): 62.5% | % Control Product (ragweed; mesotrione 0.96 mg/mL): 25.0%

COc1cnc(OC)n2nc(NS(=O)(=O)c3c(OCC(F)F)cccc3C(F)(F)F)nc12 [penoxsulam]
% Control Product (barnyard grass [3]; penoxsulam 0.051 mg/mL): 25.0% | % Control Product (sedge; penoxsulam 0.047 mg/mL): 66.7% | % control AI ([4]; Penoxsulam 13% v/v of label rate): 33.3% | % control chemical AI (barnyard grass [5]; Penoxsulam 13.0 % v/v of label rate): 25.0%

CCC(=O)Nc1ccc(Cl)c(Cl)c1 [propanil]
Observed average % efficacy (visual damage) (barnyard grass [11]): 32.5% | % Control Product (barnyard grass [3]; propanil 0.365 mg/mL): 32.5% | % Control Product (broad-leaf mustard; propanil 0.036 mg/mL): 1.67% | % control AI ([4]; Propanil .5% v/v of label rate): 62.5%

CN1C(=O)[C@H](Cc2c[nH]c3cccc([N+](=O)[O-])c23)N(C)C(=O)[C@@H]1Cc1ccccc1 [thaxtomin D, reference compound]
activity as pre and post emergent, non-systemic herbicides [12]: marked activity

CCN(CC)C(=O)SCc1ccc(Cl)cc1 [thiobencarb]
% Control Product (barnyard grass [3]; thiobencarb 1.743 mg/mL): 41.7% | % Control Product (sedge; thiobencarb 3.15 mg/mL): 58.3% | % Control Product (broad-leaf mustard; thiobencarb 1.743 mg/mL): 10.0% | Observed average % efficacy ([13]; first series, 25% Thiobencarb): 41.7% | Observed average % efficacy ([13]; second series, 15% Thiobencarb): 25% | % control AI ([4]; Thiobencarb 25% v/v of label rate): 41.7%
